Measured values: US20240400555A1 (Initial Therapeutics, Inc., priority 2023, published 2024)
pIC50: −log10 of the molar value.

tested on: MV-4-11 cells; assay: Cell Viability Assay in MV-4-11 Cells; assay type: cell-based; conditions: Homo sapiens, MV4-11, 72 h
Procedure: MV-4-11 cells (ATCC) were seeded into sterile 96-well flat clear bottom white polystyrene TC-treated microplates (Corning) at 7,000 cells/well in 150 μL complete growth medium (Iscove's Modified Dulbecco's Medium (IMDM) (Gibco), 10% Heat Inactivated Fetal Bovine Serum (HyClone), 1% Penicillin-Streptomycin-L-Glutamine (HyClone), 1% GlutaMAX (Gibco)). […] After 72 h incubation, plates were removed from incubators and allowed to equilibrate to room temperature (˜10 min) before adding 50 μL per well Cell-Titer Glo reagent (Promega) using a WellJet (Integra Biosciences) dispenser. Plates were then incubated at room temperature for 2-20 min prior to measurement of luminescence on an Envision (Perkin Elmer) plate reader. Data were normalized to DMSO (100% viability) and analyzed using a non-linear four-parameter curve fit.

Row | Compound | pIC50
1 | C=C(C)c1csc2c(N(C(=O)c3ccc(-c4cn(C)nn4)cc3F)[C@@H]3CCCNC3)nccc12 [Example 675, 2-fluoro-N-(3-isopropenylthieno[2,3-c]703yridine-7-yl)-4-(1-methyltriazol-4-yl)-N-[(3R)-3-piperidyl]benzamide] | < 6.00

same assay, conditions: Homo sapiens, MV4-11, 72 h, MV-4-11 cells, 72 h, Cell-Titer Glo; read-out: IC50

Row | Compound | pIC50
2 | Cn1cc(-c2ccc(C(=O)N(c3nccc4sc(C#N)cc34)[C@@H]3CCCNC3)c(F)c2)nn1 [Example 477, N-(2-cyanothieno [3,2-c]pyridin-4-yl)-2-fluoro-4-(1-methyltriazol-4-yl)-N-[(3R)-3-piperidyl] benzamide] | 5.55
3 | O=C(c1ccc(-n2nnc3cccnc32)cc1F)N(c1cc(/C=C/c2cccnc2)ccn1)[C@@H]1CCCNC1 [Example 431, 2-fluoro-N-[(3R)-3-piperidyl]-N-[4-[(E)-2-(3-pyridyl)vinyl]-2-pyridyl]-4-(triazolo[4,5-b]pyridin-3-yl)benzamide] | 5.64
4 | COC(=O)[C@@H]1COCCN1c1ccnc(Nc2ccc(C(=O)N(c3nccc4cccc(C)c34)[C@@H]3CCCNC3)c(F)c2)n1 [Example 945, methyl(S)-4-(2-((3-fluoro-4-((8-methylisoquinolin-1-yl)((R)-piperidin-3-yl)carbamoyl)phenyl)amino)pyrimidin-4-yl)morpholine-3-carboxylate] | 7.33
5 | Cc1cccc2ccnc(N(C(=O)N3CCC[C@@H](n4nc(-c5ccc(Oc6ccccc6)cc5)c5c(N)ncnc54)C3)[C@@H]3CCCNC3)c12 [Example 340, (R)-3-(4-amino-3-(4-phenoxyphenyl)-1H-pyrazolo[3,4-d]pyrimidin-1-yl)-N-(8-methylisoquinolin-1-yl)-N—((R)-piperidin-3-yl)piperidine-1-carboxamide] | 6.07
6 | O=C(c1ccc(-n2nnc3cccnc32)cc1F)N(c1nccc2sc(-c3ccnc(C(F)(F)F)c3)cc12)[C@@H]1CCCNC1 [Example 462, 2-fluoro-N-[(3R)-3-piperidyl]-4-(triazolo[4,5-b]pyridin-3-yl)-N-[2-[2-(trifluoromethyl)-4-pyridyl]thieno[3,2-c]pyridin-4-yl]benzamide] | 6.00
7 | [2H]C([2H])([2H])c1nnc(-c2ccc(C(=O)N(c3nccc4cc(OC)cc(C)c34)[C@@H]3CCCNC3)cn2)s1 [Example 905, N-(6-methoxy-8-methyl-1-isoquinolyl)-N-[(3R)-3-piperidyl]-6-[5-(trideuteriomethyl)-1,3,4-thiadiazol-2-yl]pyridine-3-carboxamide] | 7.21
8 | O=C(c1ccc(-n2nnc3cccnc32)cc1F)N(c1nccc2sc(-c3ccc(CO)cc3)cc12)[C@@H]1CCCNC1 [Example 599, (R)-4-(3H-[1,2,3]triazolo[4,5-b]pyridin-3-yl)-2-fluoro-N-(2-(4-(hydroxymethyl)phenyl)thieno[3,2-c]pyridin-4-yl)-N-(piperidin-3-yl)benzamide] | 6.62
9 | [2H]C([2H])([2H])c1nnc(-c2ccc(C(=O)N(c3nccc4cc(OC)cc(C)c34)[C@@H]3CCCNC3)cc2)s1 [Example 908, N-(6-methoxy-8-methyl-1-isoquinolyl)-N-[(3R)-3-piperidyl]-4-[5-(trideuteriomethyl)-1,3,4-thiadiazol-2-yl]benzamide] | 7.11
10 | C=CC(=O)Nc1cccc(-c2cc3c(N(C(=O)c4ccc(-c5cn(C)nn5)cc4F)[C@@H]4CCCNC4)nccc3s2)c1 [Example 532, 2-fluoro-4-(1-methyltriazol-4-yl)-N-[(3R)-3-piperidyl]-N-[2-[3-(prop-2-enoylamino)phenyl]thieno[3,2-c]pyridin-4-yl]benzamide] | 5.74
11 | Cc1cccc2ccnc(N(C(=O)c3ccc(N4CCOc5cccnc54)cc3F)[C@@H]3CCCNC3)c12 [Example 646, 4-(2,3-dihydropyrido[3,2-b][1,4]oxazin-4-yl)-2-fluoro-N-(8-methyl-1-isoquinolyl)-N-[(3R)-3-piperidyl]benzamide] | 5.66
12 | Cc1cccc2ccnc(N(C(=O)c3ccc(Nc4nccc(N5CCC(c6ccncc6)CC5)n4)cc3F)[C@@H]3CCCNC3)c12 [Example 962, (R)-2-fluoro-N-(8-methylisoquinolin-1-yl)-N-(piperidin-3-yl)-4-((4-(4-(pyridin-4-yl)piperidin-1-yl)pyrimidin-2-yl)amino)benzamide] | 7.82
13 | Cc1csc2ccnc(N(C(=O)c3ccc(-c4nnc(CCC#N)s4)nc3)[C@@H]3CCCNC3)c12 [Example 912, 6-[5-(2-cyanoethyl)-1,3,4-thiadiazol-2-yl]-N-(3-methylthieno[3,2-c]pyridin-4-yl)-N-[(3R)-3-piperidyl]pyridine-3-carboxamide] | 6.77
14 | Cc1nnc(-c2ccc(C(=O)N(c3nccc4c(F)ccc(C)c34)[C@@H]3CCCNC3)c(F)c2)s1 [Example 760, (R)-2-fluoro-N-(5-fluoro-8-methylisoquinolin-1-yl)-4-(5-methyl-1,3,4-thiadiazol-2-yl)-N-(piperidin-3-yl)benzamide] | 6.80

Continued, values first:

Row | pIC50 | Compound
15 | 5.64 | Cc1cc(-c2cc3c(N(C(=O)c4ccc(-c5cn(C)nn5)cc4F)[C@@H]4CCCNC4)nccc3s2)cc(C)c1C(N)=O [Example 611, (R)—N-(2-(4-carbamoyl-3,5-dimethylphenyl)thieno[3,2-c]pyridin-4-yl)-2-fluoro-4-(1-methyl-1H-1,2,3-triazol-4-yl)-N-(piperidin-3-yl)benzamide]
16 | 6.00 | COC(=O)CCC#Cc1cccc(C(=O)N(c2nccc3cccc(C)c23)[C@@H]2CCCNC2)c1 [Example 589, methyl (R)-5-(3-((8-methylisoquinolin-1-yl)(piperidin-3-yl)carbamoyl)phenyl)pent-4-ynoate]
17 | 6.00 | COC(=O)c1nc(-c2cc3c(N(C(=O)c4ccc(-n5nnc6cccnc65)cc4F)[C@@H]4CCCNC4)nccc3s2)cs1 [Example 429, methyl 4-[4-[[2-fluoro-4-(triazolo[4,5-b]pyridin-3-yl)benzoyl]-[(3R)-3-piperidyl]amino]thieno[3,2-c]pyridin-2-yl]thiazole-2-carboxylate]
18 | 6.20 | Cc1nnc(-c2ccc(C(=O)N(c3nccc4cccc(C)c34)[C@@H]3CCCNC3)c(C)c2)s1 [Example 628, (R)-2-methyl-4-(5-methyl-1,3,4-thiadiazol-2-yl)-N-(8-methylisoquinolin-1-yl)-N-(piperidin-3-yl)benzamide]
19 | 6.25 | Cc1nnc(-c2ccc(C(=O)N(c3nccc4c(C)ccc(C)c34)[C@@H]3CCCNC3)cc2)s1 [Example 878, N-(5,8-dimethyl-1-isoquinolyl)-4-(5-methyl-1,3,4-thiadiazol-2-yl)-N-[(3R)-3-piperidyl]benzamide]
20 | 6.29 | Cc1cc(-c2cn(C)nn2)ccc1C(=O)N(c1nccc2cccc(C)c12)C1CCCNC1 (centres unmarked) [Example 705, 2-methyl-4-(1-methyl-1H-1,2,3-triazol-4-yl)-N-(8-methylisoquinolin-1-yl)-N-(piperidin-3-yl)benzamide]
21 | 6.54 | O=C(c1ccc(-n2nnc3cccnc32)cc1F)N(c1nccc2cc(-c3cc[nH]c(=O)c3)ccc12)[C@@H]1CCCNC1 [Example 440, (R)-4-(3H-[1,2,3]triazolo[4,5-b]pyridin-3-yl)-2-fluoro-N-(6-(2-oxo-1,2-dihydropyridin-4-yl)isoquinolin-1-yl)-N-(piperidin-3-yl)benzamide]
22 | 6.57 | Cc1cccc2ccnc(N(C(=O)c3ccc(C#N)c(-c4cccc(-c5cccnc5)c4)c3)[C@@H]3CCCNC3)c12 [Example 336, 4-cyano-N-(8-methyl-1-isoquinolyl)-N-[(3R)-3-piperidyl]-3-[3-(3-pyridyl)phenyl]benzamide]
23 | 6.70 | Cc1cccc2ccnc(N(C(=O)c3ccc(Nc4nccc(NCc5ccncc5)n4)cc3F)[C@@H]3CCCNC3)c12 [Example 697, (R)-2-fluoro-N-(8-methylisoquinolin-1-yl)-N-(piperidin-3-yl)-4-((4-((pyridin-4-ylmethyl)amino)pyrimidin-2-yl)amino)benzamide]
24 | 6.74 | Cc1cccc2ccnc(N(C(=O)c3ccc(Nc4nccc(N5CCC[C@H](O)C5)n4)cc3F)[C@@H]3CCCNC3)c12 [Example 624, 2-fluoro-4-((4-((S)-3-hydroxypiperidin-1-yl)pyrimidin-2-yl)amino)-N-(8-methylisoquinolin-1-yl)-N—((R)-piperidin-3-yl)benzamide]
25 | 6.74 | CC(=O)N1CCN(c2ccnc(Nc3ccc(C(=O)N(c4nccc5cccc(C)c45)[C@@H]4CCCNC4)c(F)c3)n2)CC1 [Example 933, (R)-4-((4-(4-acetylpiperazin-1-yl)pyrimidin-2-yl)amino)-2-fluoro-N-(8-methylisoquinolin-1-yl)-N-(piperidin-3-yl)benzamide]
26 | 6.77 | CCc1nc(Nc2ccc(C(=O)N(c3nccc4cccc(C)c34)[C@@H]3CCCNC3)c(F)c2)ncc1F [Example 753, (R)-4-((4-ethyl-5-fluoropyrimidin-2-yl)amino)-2-fluoro-N-(8-methylisoquinolin-1-yl)-N-(piperidin-3-yl)benzamide]
27 | 6.82 | Cc1cn(-c2ccc(C(=O)N(c3nccc4cccc(Cl)c34)[C@@H]3CCCNC3)c(F)c2)nn1 [Example 393, (R)—N-(8-chloroisoquinolin-1-yl)-2-fluoro-4-(4-methyl-1H-1,2,3-triazol-1-yl)-N-(piperidin-3-yl)benzamide]
28 | 7.07 | COCCn1cc(-c2ccc(C(=O)N(c3nccc4scc(C)c34)[C@@H]3CCCNC3)c(F)c2)nn1 [Example 640, (R)-2-fluoro-4-(1-(2-methoxyethyl)-1H-1,2,3-triazol-4-yl)-N-(3-methylthieno[3,2-c]pyridin-4-yl)-N-(piperidin-3-yl)benzamide]
29 | 7.26 | COc1cc(C)c2c(N(C(=O)c3ccc(-c4cn(C)nn4)cc3)[C@@H]3CCCNC3)nccc2c1 [Example 858, N-(6-methoxy-8-methyl-1-isoquinolyl)-4-(1-methyltriazol-4-yl)-N-[(3R)-3-piperidyl]benzamide]
